Results reported in patent US20020046680A1, “Methine compound, a recording liquid for ink jet, and an ink jet recording method” (priority 2000, published 2002).

Assays:
Format in all cases: physicochemical
[1] = Light fastness of recorded image (xenon light, percentage of colorant remaining); conditions: xenon light (85000 lux) for 7 days, percentage of colorant remaining at reflection densities 1, 1.5 and 2.0
Description: (§1) Images were respectively recorded on a photo glossy paper (Photo glossy paper EX, ink jet paper manufactured by Fuji Photo Film Co., Ltd.) by an ink jet printer (“PM-770C”, manufactured by Seiko Epson Co., Ltd.) using the obtained ink liquids 1 to 9. Hue, light fastness, humidity and heat fastness and ozone gas resistance of the obtained images were evaluated.
Regarding light fastness, an image-receiving material on which images were recorded was irradiated with xenon light (85000 lux) for 7 days using a weather meter (Atlas C. 165), the image densities before and after xenon irradiation were measured by using a reflection densitometer (X-Rite310TR), and the light fastness was evaluated in terms of the percentage of colorant remaining.
(§2) Reflection density was measured at three points which were 1, 1.5 and 2.0, and the case in which the percentage of colorant remaining were 90% or more at any of the three densities was evaluated as A, the case in which the percentage of colorant remaining was less than 90% at one or two points was evaluated as B, and the case in which the percentage of colorant remaining was less than 90% at all densities was evaluated as C.

[2] = Humidity and heat fastness of recorded image (percentage of colorant remaining); conditions: 80° C., humidity of 70%, 7 days, percentage of colorant remaining at reflection densities 1, 1.5 and 2.0
Description: as §1
Further, regarding humidity and heat fastness, image densities before and after storage at a temperature of 80° C. and a humidity of 70% for 7 days were measured in the same manner, and evaluated in terms of the percentage of colorant remaining.
as §2

[3] = Ozone gas resistance of recorded image (percentage of colorant remaining); conditions: ozone gas 0.5±0.1 ppm, 7 days, room temperature, dark, percentage of colorant remaining at reflection densities 1, 1.5 and 2.0
Description: Regarding ozone gas resistance, the photo glossy papers on which the above-described images were formed were stood alone for 7 days in a box having an ozone gas concentration of 0.5±0.1 ppm in which were set at room temperature and in a dark room, and image densities before and after storage under ozone gas atmosphere were measured by using a reflection densitometer (X-Rite310TR), and evaluated in terms of the percentage of colorant remaining. The fore-mentioned reflection density was measured at three points which were 1, 1.5 and 2.0. The ozone gas concentration in the box was measured using an ozone gas monitor manufactured by APPLICS (Model OZG-EM-01). The case in which the percentage of colorant remaining were 70% or more at any of the densities was evaluated as A, the case in which the percentage of colorant remaining was less than 70% at one or two points was evaluated as B, and the case in which the percentage of colorant remaining was less than 70% at all densities was evaluated as C. It was evaluated at three stages.

Cc1ccc2[nH]c3cc4c(=O)c5cc(C)ccc5[nH]c4cc3c(=O)c2c1 [C. I. Pigment Red 122]
Light fastness [1]: A (the percentage of colorant remaining were 90% or more at any of the three densities) | Humidity and heat fastness [2]: A (the percentage of colorant remaining were 90% or more at any of the three densities) | ozone resistance [3]: A (the percentage of colorant remaining were 70% or more at any of the densities)
